Experimental data taken from patent publication US20200354426A1 (MEDIMMUNE LIMITED, priority 2016, published 2020).
Where two headings read alike, the source gives them in different places. Numbered stars: 1 amine (or outer) side, 2 acyl side, 3 side chain; on linkers, the order of the positions; unused ones are H or OH. Side chains are listed from the residue outwards. Peptide text beside a SMILES is read from it. * marks the point of attachment. γGlu = O=C(O)[C@H](CCC(=O)[*:2])N[*:1]; Palmitoyl = CCCCCCCCCCCCCCCC(=O)*; Ahx = NCCCCCC(=O)O

Key:
[1] = biological target: T1, Human GlucR (Homo sapiens, UniProt P47871); test: cAMP activity assay in assay medium (assay 1); format: cell-based; settings: assay medium
T1 construct: expressed in transfected cells
T1 sequence (P47871 26-477): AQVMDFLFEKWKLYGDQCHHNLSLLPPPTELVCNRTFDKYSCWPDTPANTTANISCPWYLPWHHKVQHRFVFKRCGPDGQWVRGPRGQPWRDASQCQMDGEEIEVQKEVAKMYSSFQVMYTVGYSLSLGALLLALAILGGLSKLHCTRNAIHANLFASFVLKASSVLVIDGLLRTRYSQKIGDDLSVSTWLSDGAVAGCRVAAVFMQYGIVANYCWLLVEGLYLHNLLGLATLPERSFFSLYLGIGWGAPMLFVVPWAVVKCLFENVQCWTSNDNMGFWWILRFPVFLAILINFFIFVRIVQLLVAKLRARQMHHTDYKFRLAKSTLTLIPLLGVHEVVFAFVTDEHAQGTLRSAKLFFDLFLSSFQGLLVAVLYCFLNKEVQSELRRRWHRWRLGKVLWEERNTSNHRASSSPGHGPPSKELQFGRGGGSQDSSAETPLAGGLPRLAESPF
Source text: (§1) Biological Activity of Peptides in Cell-Based cAMP Activity Assay (Assay 1):
(§2) All sample dilutions were made in duplicate.

[2] = biological target: Human GLP1R (Homo sapiens, UniProt P43220); test: cAMP activity assay in assay medium (assay 1); format: cell-based; design: expressed in transfected cells; settings: assay medium
Sequence of Human GLP1R (P43220 24-463): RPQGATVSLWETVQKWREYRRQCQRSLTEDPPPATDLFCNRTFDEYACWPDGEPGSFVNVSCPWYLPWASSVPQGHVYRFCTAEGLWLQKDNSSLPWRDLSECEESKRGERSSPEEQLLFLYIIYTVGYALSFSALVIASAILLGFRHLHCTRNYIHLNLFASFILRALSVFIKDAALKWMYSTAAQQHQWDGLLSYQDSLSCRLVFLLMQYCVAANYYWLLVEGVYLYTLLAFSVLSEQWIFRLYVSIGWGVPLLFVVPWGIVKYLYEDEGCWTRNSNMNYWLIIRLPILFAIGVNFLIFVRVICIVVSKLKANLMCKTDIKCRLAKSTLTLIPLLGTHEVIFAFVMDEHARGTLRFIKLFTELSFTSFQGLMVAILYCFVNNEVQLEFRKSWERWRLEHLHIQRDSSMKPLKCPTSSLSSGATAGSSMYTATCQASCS
Source text: as §1, §2

Row | Compound | EC50 ([1]; Table 3, C-terminal acid peptides, read-out: Human GlucR EC50) [nM] | EC50 ([2]; Table 3, C-terminal acid peptides, read-out: Human GLP1R EC50) [nM] | EC50 ([1]; Table 4, read-out: hGlucR EC50) [nM] | EC50 ([2]; Table 4, read-out: hGLP1R EC50) [nM]
1 | CCCCCCCCCCCCCCCC(=O)N[C@@H](CCC(=O)NCCCC[C@H](NC(=O)[C@H](CCCCN)NC(=O)[C@H](CO)NC(=O)[C@H](Cc1ccc(O)cc1)NC(=O)[C@H](CC(=O)O)NC(=O)[C@H](CO)NC(=O)[C@@H](NC(=O)[C@H](Cc1ccccc1)NC(=O)[C@@H](NC(=O)CNC(=O)[C@H](CCC(N)=O)NC(=O)[C@H](CO)NC(=O)[C@@H](N)Cc1c[nH]cn1)[C@@H](C)O)[C@@H](C)O)C(=O)N[C@@H](CC(C)C)C(=O)N[C@@H](CC(=O)O)C(=O)N[C@@H](CO)C(=O)N[C@@H](CCC(=O)O)C(=O)N[C@@H](CCCNC(=N)N)C(=O)N[C@@H](C)C(=O)N[C@@H](CCCNC(=N)N)C(=O)N[C@@H](CC(=O)O)C(=O)N[C@@H](Cc1ccccc1)C(=O)N[C@H](C(=O)N[C@@H](C)C(=O)N[C@@H](Cc1c[nH]c2ccccc12)C(=O)N[C@@H](CC(C)C)C(=O)N[C@H](C(=O)N[C@@H](C)C(=O)NCC(=O)NCC(=O)O)C(C)C)C(C)C)C(=O)O [Peptide G931] (H-HSQGTFTSDYSKK([γGlu-Palmitoyl])LDSERARDFVAWLVAGG-OH; N-terminus assumed) | 0.0178 | 0.13 | – | –
2 | CCCCCCCCCCCCCCCC(=O)NCCCCCC(=O)NCCCC[C@H](NC(=O)[C@H](C)NC(=O)[C@H](CCCNC(=N)N)NC(=O)[C@H](CCC(=O)O)NC(=O)[C@H](CO)NC(=O)[C@H](CC(=O)O)NC(=O)[C@H](CC(C)C)NC(=O)[C@H](Cc1ccc(O)cc1)NC(=O)[C@H](CCCCN)NC(=O)[C@H](CO)NC(=O)[C@H](Cc1ccc(O)cc1)NC(=O)[C@H](CC(=O)O)NC(=O)[C@H](CO)NC(=O)[C@@H](NC(=O)[C@H](Cc1ccccc1)NC(=O)[C@@H](NC(=O)CNC(=O)[C@H](CCC(N)=O)NC(=O)[C@H](CO)NC(=O)[C@@H](N)Cc1c[nH]cn1)[C@@H](C)O)[C@@H](C)O)C(=O)N[C@@H](CC(=O)O)C(=O)N[C@@H](Cc1ccccc1)C(=O)N[C@H](C(=O)N[C@@H](C)C(=O)N[C@@H](Cc1c[nH]c2ccccc12)C(=O)N[C@@H](CC(C)C)C(=O)N[C@@H](CCC(=O)O)C(=O)N[C@@H](CCCNC(=N)N)C(=O)NCC(=O)NCC(N)=O)C(C)C [g787] (H-HSQGTFTSDYSKYLDSERAK([Ahx-Palmitoyl])DFVAWLERGG-NH2; N-terminus assumed) | – | – | 0.0436 | 6.65
3 | CCCCCCCCCCCCCCCC(=O)NCCCCCC(=O)NCCCC[C@H](NC(=O)[C@H](CO)NC(=O)[C@H](CC(=O)O)NC(=O)[C@H](CC(C)C)NC(=O)[C@H](Cc1ccc(O)cc1)NC(=O)[C@H](CCC(=O)O)NC(=O)[C@H](CO)NC(=O)[C@H](Cc1ccc(O)cc1)NC(=O)[C@H](CC(=O)O)NC(=O)[C@H](CO)NC(=O)[C@@H](NC(=O)[C@H](Cc1ccccc1)NC(=O)[C@@H](NC(=O)CNC(=O)[C@H](CCC(N)=O)NC(=O)CNC(=O)[C@@H](N)Cc1c[nH]cn1)[C@@H](C)O)[C@@H](C)O)C(=O)N[C@@H](CCCNC(=N)N)C(=O)N[C@@H](C)C(=O)N[C@@H](CCCNC(=N)N)C(=O)N[C@@H](CC(=O)O)C(=O)N[C@@H](Cc1ccccc1)C(=O)N[C@H](C(=O)N[C@@H](CCC(=O)O)C(=O)N[C@@H](Cc1c[nH]c2ccccc12)C(=O)N[C@@H](CC(C)C)C(=O)N[C@@H](CCC(=O)O)C(=O)N[C@@H](CCCNC(=N)N)C(=O)NCC(=O)NCC(N)=O)C(C)C [g682] | – | – | 0.195 | 0.0143
4 | CCCCCCCCCCCCCCCC(=O)N[C@@H](CCC(=O)NCCCC[C@H](NC(=O)[C@H](CO)NC(=O)[C@H](CC(=O)O)NC(=O)[C@H](CC(C)C)NC(=O)[C@H](Cc1ccc(O)cc1)NC(=O)[C@H](CCCNC(=N)N)NC(=O)[C@H](CO)NC(=O)[C@H](Cc1ccc(O)cc1)NC(=O)[C@H](CC(=O)O)NC(=O)[C@H](CO)NC(=O)[C@@H](NC(=O)[C@H](Cc1ccccc1)NC(=O)[C@@H](NC(=O)CNC(=O)[C@H](CCC(N)=O)NC(=O)CNC(=O)[C@@H](N)Cc1c[nH]cn1)[C@@H](C)O)[C@@H](C)O)C(=O)N[C@@H](CCCNC(=N)N)C(=O)N[C@@H](C)C(=O)N[C@@H](CCCNC(=N)N)C(=O)N[C@@H](CC(=O)O)C(=O)N[C@@H](Cc1ccccc1)C(=O)N[C@H](C(=O)N[C@@H](CCC(=O)O)C(=O)N[C@@H](Cc1c[nH]c2ccccc12)C(=O)N[C@@H](CC(C)C)C(=O)N[C@H](C(=O)N[C@@H](C)C(=O)NCC(=O)NCC(N)=O)C(C)C)C(C)C)C(=O)O [g720] (H-HGQGTFTSDYSRYLDSK([γGlu-Palmitoyl])RARDFVEWLVAGG-NH2; N-terminus assumed) | – | – | 0.352 | 0.0534
5 | CC(C)C[C@H](NC(=O)[C@H](Cc1ccc(O)cc1)NC(=O)[C@H](CCCCN)NC(=O)[C@H](CO)NC(=O)[C@H](Cc1ccc(O)cc1)NC(=O)[C@H](CC(=O)O)NC(=O)[C@H](CO)NC(=O)[C@@H](NC(=O)[C@H](Cc1ccccc1)NC(=O)[C@@H](NC(=O)CNC(=O)[C@H](CCC(N)=O)NC(=O)[C@H](CO)NC(=O)[C@@H](N)Cc1c[nH]cn1)[C@@H](C)O)[C@@H](C)O)C(=O)N[C@@H](CC(=O)O)C(=O)N[C@@H](CO)C(=O)N[C@@H](CCCNC(=N)N)C(=O)N[C@@H](CCCNC(=N)N)C(=O)N[C@@H](C)C(=O)N[C@@H](CCC(N)=O)C(=O)N[C@@H](CC(=O)O)C(=O)N[C@@H](Cc1ccccc1)C(=O)N[C@H](C(=O)N[C@@H](CCC(N)=O)C(=O)N[C@@H](Cc1c[nH]c2ccccc12)C(=O)N[C@@H](CC(C)C)C(=O)N[C@H](C(=O)N[C@@H](CCCNC(=N)N)C(=O)NCC(=O)NCC(=O)N[C@@H](CO)C(=O)N[C@@H](CO)C(=O)NCC(=O)NCC(=O)N[C@@H](CO)C(=O)N[C@@H](CO)C(=O)N[C@@H](CCCCN)C(N)=O)C(C)C)C(C)C [g317] | – | – | – | 2.63
6 | CCCCCCCCCCCCCCCC(=O)N[C@@H](CCC(=O)NCCCC[C@H](NC(=O)[C@H](CO)NC(=O)[C@H](CC(=O)O)NC(=O)[C@H](CC(C)C)NC(=O)[C@H](Cc1ccc(O)cc1)NC(=O)[C@H](CCCCN)NC(=O)[C@H](CO)NC(=O)[C@H](Cc1ccc(O)cc1)NC(=O)[C@H](CC(=O)O)NC(=O)[C@H](CO)NC(=O)[C@@H](NC(=O)[C@H](Cc1ccccc1)NC(=O)[C@@H](NC(=O)CNC(=O)[C@H](CCC(=O)O)NC(=O)CNC(=O)[C@@H](N)Cc1c[nH]cn1)[C@@H](C)O)[C@@H](C)O)C(=O)N[C@@H](CCCNC(=N)N)C(=O)N[C@@H](C)C(=O)N[C@@H](C)C(=O)N[C@@H](CC(=O)O)C(=O)N[C@@H](Cc1ccccc1)C(=O)N[C@H](C(=O)N[C@@H](C)C(=O)N[C@@H](Cc1c[nH]c2ccccc12)C(=O)N[C@@H](CC(C)C)C(=O)N[C@H](C(=O)N[C@@H](C)C(=O)NCC(=O)NCC(N)=O)C(C)C)C(C)C)C(=O)O [g737] (H-HGEGTFTSDYSKYLDSK([γGlu-Palmitoyl])RAADFVAWLVAGG-NH2; N-terminus assumed) | – | – | 734 | 0.0814
7 | CC(C)C[C@H](NC(=O)[C@H](Cc1ccc(O)cc1)NC(=O)[C@H](CCCCN)NC(=O)[C@H](CO)NC(=O)[C@H](Cc1ccc(O)cc1)NC(=O)[C@H](CC(=O)O)NC(=O)[C@H](CO)NC(=O)[C@@H](NC(=O)[C@H](Cc1ccccc1)NC(=O)[C@@H](NC(=O)CNC(=O)[C@H](CCC(N)=O)NC(=O)[C@H](CO)NC(=O)[C@@H](N)Cc1c[nH]cn1)[C@@H](C)O)[C@@H](C)O)C(=O)N[C@@H](CC(=O)O)C(=O)N[C@@H](CO)C(=O)N[C@@H](CCCNC(=N)N)C(=O)N[C@@H](CCCNC(=N)N)C(=O)N[C@@H](C)C(=O)N[C@@H](CCC(N)=O)C(=O)N[C@@H](CC(=O)O)C(=O)N[C@@H](Cc1ccccc1)C(=O)N[C@H](C(=O)N[C@@H](CCC(N)=O)C(=O)N[C@@H](Cc1c[nH]c2ccccc12)C(=O)N[C@@H](CC(C)C)C(=O)N[C@H](C(=O)N[C@@H](CCCNC(=N)N)C(=O)NCC(=O)NCC(=O)NCC(=O)NCC(=O)NCC(=O)NCC(=O)N[C@@H](CCCCN)C(N)=O)C(C)C)C(C)C [g325] | – | – | 0.0103 | –
